Patent publication US8452543B2, “High throughput screening for antimicrobial dosing regimens” (priority 2005, dated 2013)

Experiments:
[1] = test system: amikacin resistant A. baumannii isolates; experiment: Resistance confirmation, repeat susceptibility testing, amikacin; format: cell-based, Acinetobacter baumannii; conditions: amikacin resistant isolates
Procedure: The media plates were incubated at 35° C. for up to 24 (total population) and 72 hours (sub-populations with reduced susceptibility), then bacterial density from each sample was enumerated visually. The theoretical lower limit of detection was 400 CFU/ml.

in vivo = experiment: in vivo
Procedure: In vivo meropenem concentrations in mouse serum were determined by a microbioassay utilizing Escherichia coli ATCC 25922 as the reference organism. The meropenem standard solutions ranged from 0.5 to 128 μg/ml in mouse serum.
(§1) Female Swiss-Webster mice (22-26 g) were used; all mice were cared for in accordance to the highest humane and ethical standards, as approved by the Institutional Animal Care and Use Committee (IACUC). The animals were housed in isolation boxes to decrease the risk of infection from extraneous pathogens. They received food and water ad libitum. The animals were rendered neutropenic by 2 intra-peritoneal injections of cyclophosphamide (Sigma, St. Louis, Mo.) 150 mg/kg on day −4 and 100 mg/kg on day −1 prior to infection; previous studies have shown that this regimen would produce neutropenia for 5 days (13, 16). Transient nephrotoxicity was induced by 1 intra-peritoneal injection of uranyl nitrate (5 mg/kg on day −2), which has been previously shown to produce a significant stable reduction in renal function for at least 7 days (21).
The bacterial inoculum was prepared and inoculated into the animals as outlined below. […] Six mice were sacrificed by CO2 asphyxiation at 0.5, 1, 1.5, 2, and 3 hours after injection. Blood samples were collected via cardiac puncture. The blood was allowed to clot on ice and centrifuged; meropenem concentrations in these serum samples were assayed by a validated method as described below. The serum concentration profiles of all the animals were analyzed by linear regression of the logarithmic-transformed data.

[2] = test system: P. aeruginosa ATCC 27853 and its isogenic OprD− mutant (1000:1); experiment: Murine pneumonia model; format: in vivo, mice
Procedure: as §1
Each mouse was anesthetized with a single intra-peritoneal dose ([…]) of tribromoethanol (Sigma, St. Louis, Mo.), and was intubated under laryngoscopic guidance. For each mouse, the correct placement of endotracheal tube was verified by placing a cooled mirror surface close to the exit to observe water vapor condensation. A few colonies of the bacterial isolates were inoculated into Ca-MHB and incubated at 35° C. until they reached late log phase growth. The bacterial suspension was diluted to the desired concentration of approximately 10^8 CFU/ml based on absorbance at 630 nm; a mixture of wild-type and its isogenic OprD^− mutant in a 1000:1 ratio was used to mimic a heterogeneous bacterial population. The inocula (10 μl) were directly inoculated into the trachea of the anesthetized animals.
Two hours after infection, 3 mice were sacrificed by CO2 asphyxiation to ascertain the bacterial burden in lung tissues. The lung tissues were aseptically collected and homogenized in 10 ml of sterile saline. The homogenates were centrifuged at 6000×G for 15 minutes. The supernatant was discarded and the pellets were re-suspended in normal saline to 10× their original volumes in order to minimize drug carry-over effect. They were then diluted ten-fold serially and quantitatively cultured on Mueller-Hinton agar (MHA) plates (Hardy Diagnostics, Santa Maria, Calif.) and MHA plates supplemented with meropenem at 3× the MIC of the wild-type isolate. The media plates were incubated at 35° C. in a humidified incubator for up to 24 hours (for MHA plates) and 72 hours (for meropenem-supplemented MHA plates) before reading and the bacterial burden in lung tissues enumerated.
The remaining mice were observed every 8 hours for 4 days, with or without meropenem (400 mg/kg) given intra-peritoneally every 8 hours (10 mice in each group). Total bacterial burden and those with reduced susceptibility in animal lung tissues were determined in a similar manner upon death or at the end of the experiment. Susceptibility testing was repeated on representative isolates recovered from meropenem-supplemented plates to confirm the presence of resistance.

[3] = female, Swiss-Webster, mouse, in vivo, 400 mg/kg
[4] = 10 mice received meropenem treatment

## C[C@@H](O)[C@H]1C(=O)N2C(C(=O)O)=C(S[C@@H]3CN[C@H](C(=O)N(C)C)C3)[C@H](C)[C@H]12 [meropenem]
[1]
  cross-resistance: not
In vivo; 400 mg/kg, OprD− mutant
  % T>MIC: 26%
In vivo; 400 mg/kg, wild-type isolate
  % T>MIC: 33%
In vivo; [3]
  Cmax: 354 µg/mL
  half-life: 19 min
In vivo; lower doses (50 mg/kg and 100 mg/kg)
  serum concentration: did not result a detectable serum meropenem concentration beyond 1 hour
[2]; 400 mg/kg intra-peritoneally every 8 hours
  survival over 4 days: 100%
[2]; 400 mg/kg intra-peritoneally every 8 hours, 96 hours
  animals with complete replacement of bacterial population by the OprD− mutant in lung tissue: 30%
[2]; [4]
  mice in which resistance emergence was found: 3 mice
  mice that survived up to 96 hours: 10 mice
[2]; repeat susceptibility testing
  MIC of isolates recovered from meropenem-supplemented MHA plates compared to the OprD− mutant: did not reveal a substantial increase in MIC
